According to PubChem BioAssay (NCI):
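Cells were grown in 96-well plates and exposed to each compound for 48 hours at five concentrations; endpoints were interpolated linearly between bracketing concentrations, or set to the highest concentration if not reached. Abbreviation: GI50, concentration required for 50% inhibition of growth. The concentration for full growth arrest is given as TGI.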

Key:
Test in all cases: NCI-60 cell line screen, 48 h
[1] = test system: HOP-92 NSCLC
[2] = test system: MDA-MB-435
[3] = test system: SF-268 CNS
[4] = test system: PC-3 prostate
[5] = test system: KM12 colon
[6] = test system: COLO 205 colon
[7] = test system: 786-0 renal
[8] = test system: A549 NSCLC
[9] = test system: OVCAR-8 ovarian
[10] = test system: BT-549 breast
[11] = test system: HOP-62 NSCLC
[12] = test system: HS 578T breast
[13] = test system: M14 melanoma
[14] = test system: UACC-62 melanoma
[15] = test system: U251 CNS
[16] = test system: NCI-H522 lung
[17] = test system: HL-60(TB) leukemia
[18] = test system: MALME-3M melanoma
[19] = test system: HT29 colon
[20] = test system: MCF7 breast
[21] = test system: T-47D breast
[22] = test system: MDA-MB-468 breast
[23] = test system: K-562 leukemia
[24] = test system: CAKI-1 renal
[25] = test system: OVCAR-5 ovarian
[26] = test system: NCI-H460 lung
[27] = test system: DU-145 prostate
[28] = test system: UACC-257 melanoma
[29] = test system: MDA-MB-231 breast
[30] = test system: OVCAR-3 ovarian
[31] = test system: SR leukemia
[32] = test system: SK-OV-3 ovarian
[33] = test system: SW-620 colon
[34] = test system: CCRF-CEM leukemia
[35] = test system: NCI/ADR-RES ovarian
[36] = test system: EKVX NSCLC
[37] = test system: SK-MEL-2 melanoma
[38] = test system: IGROV1 ovarian
[39] = test system: SNB-75 CNS
[40] = test system: SNB-19 CNS
[41] = test system: NCI-H23 lung
[42] = test system: HCT-116 colon
[43] = test system: RPMI-8226 leukemia
[44] = test system: ACHN renal
[45] = test system: MOLT-4 leukemia
[46] = test system: HCC-2998 colon
[47] = test system: SK-MEL-5 melanoma
[48] = test system: NCI-H226 lung
[49] = test system: SN12C renal
[50] = test system: LOX IMVI melanoma
[51] = test system: TK-10 renal
[52] = test system: UO-31 renal
[53] = test system: RXF 393 renal
[54] = test system: SK-MEL-28 melanoma
[55] = test system: A498 renal
[56] = test system: OVCAR-4 ovarian
[57] = test system: SF-295 CNS
[58] = test system: SF-539 CNS
[59] = test system: HCT-15 colon

COc1ccc(NC(=O)Cn2c(/C=C/c3cccc(Br)c3)nc3ccccc3c2=O)cc1
GI50 [1]: 8.66 µM
TGI [1]: 32.6 µM
GI50 [2]: > 36 µM
TGI [2]: > 36 µM
GI50 [3]: 13.9 µM
TGI [3]: > 36 µM
GI50 [4]: > 36 µM
TGI [4]: > 36 µM
GI50 [5]: > 36 µM
TGI [5]: > 36 µM
GI50 [6]: > 36 µM
TGI [6]: > 36 µM
GI50 [7]: 4.9 µM
TGI [7]: 14.8 µM
GI50 [8]: 11.4 µM
TGI [8]: > 36 µM
GI50 [9]: 10.5 µM
TGI [9]: > 36 µM
GI50 [10]: 3.62 µM
TGI [10]: > 36 µM
GI50 [11]: 6.47 µM
TGI [11]: 21 µM
GI50 [12]: 2.73 µM
TGI [12]: 30.8 µM
GI50 [13]: 31.8 µM
TGI [13]: > 36 µM
GI50 [14]: > 36 µM
TGI [14]: > 36 µM
GI50 [15]: 4.68 µM
TGI [15]: 13.5 µM
GI50 [16]: 17.6 µM
TGI [16]: > 36 µM
GI50 [17]: > 36 µM
TGI [17]: > 36 µM
GI50 [18]: 6.56 µM
TGI [18]: 27 µM
GI50 [19]: > 36 µM
TGI [19]: > 36 µM
GI50 [20]: 8.56 µM
TGI [20]: > 36 µM
GI50 [21]: > 36 µM
TGI [21]: > 36 µM
GI50 [22]: 6.25 µM
TGI [22]: > 36 µM
GI50 [23]: > 36 µM
TGI [23]: > 36 µM
GI50 [24]: 14 µM
TGI [24]: > 36 µM
GI50 [25]: 15.6 µM
TGI [25]: > 36 µM
GI50 [26]: 15.7 µM
TGI [26]: > 36 µM
GI50 [27]: 13.5 µM
TGI [27]: > 36 µM
GI50 [28]: > 36 µM
TGI [28]: > 36 µM
GI50 [29]: 1.93 µM
TGI [29]: 8.8 µM
GI50 [30]: 10.6 µM
TGI [30]: > 36 µM
GI50 [31]: 1.06 µM
TGI [31]: > 36 µM
GI50 [32]: 7.25 µM
TGI [32]: 27.5 µM
GI50 [33]: > 36 µM
TGI [33]: > 36 µM
GI50 [34]: > 36 µM
TGI [34]: > 36 µM
GI50 [35]: 7.1 µM
TGI [35]: > 36 µM
GI50 [36]: > 36 µM
TGI [36]: > 36 µM
GI50 [37]: > 36 µM
TGI [37]: > 36 µM
GI50 [38]: > 36 µM
TGI [38]: > 36 µM
GI50 [39]: 0.801 µM
TGI [39]: 3.27 µM
GI50 [40]: 11.4 µM
TGI [40]: > 36 µM
GI50 [41]: 10.5 µM
TGI [41]: > 36 µM
GI50 [42]: 5.67 µM
TGI [42]: > 36 µM
GI50 [43]: > 36 µM
TGI [43]: > 36 µM
GI50 [44]: 1.75 µM
TGI [44]: 12.2 µM
GI50 [45]: > 36 µM
TGI [45]: > 36 µM
GI50 [46]: > 36 µM
TGI [46]: > 36 µM
GI50 [47]: > 36 µM
TGI [47]: > 36 µM
GI50 [48]: 1.69 µM
TGI [48]: 9.64 µM
GI50 [49]: 14.8 µM
TGI [49]: > 36 µM
GI50 [50]: 3.02 µM
TGI [50]: > 36 µM
GI50 [51]: 5.4 µM
TGI [51]: 13.4 µM
GI50 [52]: 4.41 µM
TGI [52]: 15.4 µM
GI50 [53]: 4.39 µM
TGI [53]: 17.6 µM
GI50 [54]: > 36 µM
TGI [54]: > 36 µM
GI50 [55]: 9.71 µM
TGI [55]: 32.5 µM
GI50 [56]: 2.17 µM
TGI [56]: 9.94 µM
GI50 [57]: 6.79 µM
TGI [57]: > 36 µM
GI50 [58]: 2.94 µM
TGI [58]: 8.06 µM
GI50 [59]: > 36 µM
TGI [59]: > 36 µM
